According to ChEMBL document CHEMBL4393655, “Evaluation of synthetic substituted 1,2-dioxanes as novel agents against human leishmaniasis” (Eur J Med Chem, 2019):

What was measured:
Leishmania infantum [1] = test: Antileishmanial activity against amastigote stage of Leishmania infantum MHOM/PT/88/IMT151 infected in human THP-1 cells assessed as parasite growth inhibition after 48 hrs by microscopic analysis; format: functional, organism-based; details: MHOM/PT/88/IMT151, THP-1, 48 h
Leishmania infantum [2] = test: Antileishmanial activity against promastigote stage of Leishmania infantum MHOM/PT/88/IMT151 as parasite growth inhibition after 48 hrs by MTT assay; format: functional, organism-based; details: MHOM/PT/88/IMT151, 48 h
Leishmania donovani [3] = test: Antileishmanial activity against late log/stationary phase of promastigote stage of Leishmania donovani MHOM/NP/02/BPK282/0c14 assessed as parasite growth inhibition after 72 hrs by plate reader based Alamar blue assay; format: functional, organism-based
Leishmania donovani [4] = test: Antileishmanial activity against promastigote stage of Leishmania donovani MHOM/ET/67/HU3 assessed as parasite growth inhibition after 3 days by MTT assay; format: functional, organism-based; details: MHOM/ET/67/HU3, 72 h
[5] = Solubility of the compound; format: physicochemical
Leishmania infantum [6] = test: Antileishmanial activity against late log/stationary phase of promastigote stage of Leishmania infantum MHOM/TN/80/IPT1 assessed as parasite growth inhibition after 72 hrs by plate reader based Alamar blue assay; format: functional, organism-based; details: MHOM/TN/80/IPT1, 72 h
Leishmania donovani [7] = test: Antileishmanial activity against amastigote stage of Leishmania donovani MHOM/NP/02/BPK282/0c14 infected in human THP1 cells assessed as parasite growth inhibition after 72 hrs by Giemsa staining-based light microscopic analysis; format: functional, organism-based; details: MHOM/NP/02/BPK282/0c14, THP-1, 72 h
Leishmania major = test: Antileishmanial activity against late log/stationary phase of promastigote stage of Leishmania major MHOM/SU/73/5-ASKH assessed as parasite growth inhibition after 72 hrs by plate reader based Alamar blue assay; format: functional, organism-based
[8] = (§1) Cytotoxicity against African green monkey Vero cells after 72 hrs by plate reader based Alamar blue assay; format: cell-based; details: chlorocebus sabaeus, Vero cells
Leishmania tropica = test: Antileishmanial activity against late log/stationary phase of promastigote stage of Leishmania tropica MHOM/SU/74/K27 assessed as parasite growth inhibition after 72 hrs by plate reader based Alamar blue assay; format: functional, organism-based; details: MHOM/SU/74/K27, 72 h
[9] = Selectivity index, ratio of CC50 for African green monkey Vero cells to IC50 for Leishmania donovani MHOM/NP/02/BPK282/0c14; format: toxicity; details: for selectivity ratio: Vero cells, read-out: Ratio CC50/IC50
Vero = test: as §1; format: cell-based; details: chlorocebus sabaeus, vero, 72 h
Leishmania donovani [10] = test: Antileishmanial activity against promastigote stage of Leishmania donovani MHOM/IN/83/AG83 assessed as inhibition of parasite viability after 48 hrs by MTS assay; format: functional, organism-based; details: MHOM/IN/83/AG83, 48 h
Leishmania donovani [11] = test: Antileishmanial activity against promastigote stage of Leishmania donovani assessed as parasite growth inhibition after 72 hrs by resazurin dye based assay; format: functional, organism-based
Leishmania donovani [12] = test: Antileishmanial activity against promastigote stage of Leishmania donovani NLB-065 assessed as parasite growth inhibition after 72 hrs by microscopic analysis; format: functional, organism-based; details: NLB-065, 72 h
[13] = Leishmania donovani, MHOM/NP/02/BPK282/0c14, 72 h

SMILES | IC50 (Leishmania donovani [3]; [13]) | CC50 at 72 h [8] | selectivity ratio [9] | other results
O=C1CCC2(CC1)OOC1(O2)C2CC3CC(C2)CC1C3 (centres undefined) | – | – | – | IC50 (Leishmania infantum [1]): 79.8 µM; IC50 (Leishmania infantum [2]): 9.35 µM
COC(=O)C1CC(c2ccccc2)(c2ccccc2)OOC1(C)OC (centres undefined) | > 40 µM | – | – | –
C=CCO[C@@]1(C(F)(F)F)O[C@@H]2O[C@@]3(C)C[C@H]4[C@H](C)CC[C@@H](C1=C)[C@@]24OO3 | – | – | – | IC50 (Leishmania donovani [4]): 5.5 to 12.4 µM
C=CCO[C@@]1(C(F)(F)F)O[C@@H]2O[C@@]3(C)C[C@H]4[C@H](C)CC[C@@H]([C@H]1C)[C@@]24OO3 | – | – | – | IC50 (Leishmania donovani [4]): 1.6 to 6.25 µM
CCCCC1(O)OOC(c2ccccc2)(c2ccccc2)CC1C(=O)OC (centres undefined) | – | – | – | solubility [5]: Insoluble
C[C@@H]1CC[C@H]2[C@@H](C)[C@](OO)(C(F)(F)F)O[C@@H]3O[C@@]4(C)C[C@@H]1[C@]32OO4 | – | – | – | IC50 (Leishmania donovani [4]): 2.5 to 12.5 µM
COC1(C)OOC(c2ccccc2)(c2ccccc2)CC1CO (centres undefined) | > 40 µM | – | – | –
COc1ccc(N[C@@]2(C(F)(F)F)O[C@@H]3O[C@@]4(C)C[C@H]5[C@H](C)CC[C@@H]([C@H]2C)[C@@]35OO4)cc1 | – | – | – | IC50 (Leishmania donovani [4]): 0.38 to 1.5 µM
COC(=O)C1CC(c2ccccc2)(c2ccccc2)OOC1(C)O (centres undefined) | > 40 µM | – | – | –
NCC1CC[C@]2(CC1)OO[C@]1(O2)C2CC3CC(C2)CC1C3 (some centres undefined) | – | – | – | IC50 (Leishmania infantum [1]): 108 µM; IC50 (Leishmania infantum [2]): 3.51 µM
CCCCC1(CCCC)C[C@@H](COCc2cn(CC(O)(Cn3cncn3)c3ccc(F)cc3F)nn2)[C@@](C)(OC)OO1 (mixture of isomers) | 16 µM | 195 µM | 12.2 | IC50 (Leishmania infantum [6]): 12 µM; IC50 (Leishmania donovani [7]): 13 µM; IC50 (Leishmania major): 38.4 µM; IC50 (Leishmania tropica): 38 µM
CO[C@@]1(C)OOC2(CC[C@H]3C[C@@H]2C3(C)C)C[C@H]1CNCCCn1ccnc1 (mixture of isomers) | 16.3 µM | 274 µM | 16.8 | IC50 (Leishmania infantum [6]): 6 µM; IC50 (Leishmania donovani [7]): 23.5 µM; IC50 (Leishmania major): 15.5 µM; IC50 (Leishmania tropica): 35 µM
CO[C@]1(C)OOC2(CC[C@H]3C[C@@H]2C3(C)C)C[C@H]1CNCCCn1ccnc1 (mixture of isomers; form 1) | – | 300 µM | 18.3 | IC50 (Leishmania donovani [3]): 16.4 µM
CO[C@]1(C)OOC2(CC[C@H]3C[C@@H]2C3(C)C)C[C@H]1CNCCCn1ccnc1 (mixture of isomers; form 2) | – | – | – | IC50 (Leishmania donovani [3]): 8 µM; IC50 (Leishmania infantum [6]): 5 µM; IC50 (Leishmania donovani [7]): 9.7 µM; IC50 (Leishmania major): 25 µM; CC50 (Vero): 276 µM; IC50 (Leishmania tropica): 24 µM; Ratio CC50/IC50 ([9]; vero): 34.6
CO[C@@]1(C)OOC(C)(C)C[C@H]1COCc1cn(CCC[P+](c2ccccc2)(c2ccccc2)c2ccccc2)nn1 (racemic) | > 40 µM | – | – | –
CCCCC1(CCCC)C[C@@H](C(=O)OC)[C@@](C)(O)OO1 (racemic) | > 40 µM | – | – | –
CCCCC1(CCCC)C[C@@H](CO)[C@](C)(OC)OO1 (racemic) | > 40 µM | – | – | –
CCCC[C@]1(OC)OOC(C)(C)C[C@H]1CNCCCn1ccnc1 (racemic) | > 40 µM | – | – | –
CCCCC1(CCCC)C[C@@H](CNCCCn2cncn2)[C@@](C)(OC)OO1 (racemic) | > 40 µM | – | – | –
CO[C@@]1(C)OOC(C)(C)C[C@H]1CNCCCn1ccnc1 (racemic) | > 40 µM | – | – | –
CO[C@@]1(C)OOC(c2ccccc2)(c2ccccc2)C[C@H]1CNCCCn1ccnc1 (racemic) | 7.5 µM | 50 µM | 6.7 | –

SMILES | IC50 (Leishmania donovani [3]; [13]) | CC50 at 72 h [8] | selectivity ratio [9] | other results
CCCCC1(CCCC)C[C@@H](CO)[C@@](C)(OC)OO1 (racemic) | > 40 µM | – | – | –
CCCCC1(CCCC)C[C@@H](C(=O)OC)[C@](C)(OC)OO1 (racemic) | > 40 µM | – | – | –
CCCCC1(CCCC)C[C@@H](CNCCCn2ccnc2)[C@@](CCCC)(OC)OO1 (racemic) | 6.2 µM | 32.5 µM | 5.2 | –
CO[C@@]1(C)OOC(c2ccccc2)(c2ccccc2)C[C@H]1COCc1cn(CCC[P+](c2ccccc2)(c2ccccc2)c2ccccc2)nn1 (racemic) | 13.8 µM | 280 µM | 24.3 | IC50 (Leishmania infantum [6]): 10 µM; IC50 (Leishmania donovani [7]): 16.5 µM; IC50 (Leishmania major): 2.6 µM; IC50 (Leishmania tropica): 6 µM
CCCCC1(CCCC)C[C@@H](CNCCCNc2ccnc3cc(Cl)ccc23)[C@@](C)(OC)OO1 (racemic) | 1.6 µM | 4 µM | 2.5 | –
CCCC[C@]1(OC)OOC(c2ccccc2)(c2ccccc2)C[C@H]1CNCCCn1ccnc1 (racemic) | 4.2 µM | 9.5 µM | 2.3 | –
CO[C@@]1(C)OOC(c2ccc(F)cc2)(c2ccc(F)cc2)C[C@H]1CNCCCn1ccnc1 (racemic) | 12 µM | 93.6 µM | 7.8 | –
CCCCC1(CCCC)C[C@@H](C(=O)OC)[C@@](C)(OC)OO1 (racemic) | > 40 µM | – | – | –
CCCCC1(CCCC)C[C@@H](CNCCCn2ccnc2)[C@@](C)(OC)OO1 (racemic) | 7.5 µM | 74.5 µM | 13.5 | IC50 (Leishmania infantum [6]): 3 µM; IC50 (Leishmania donovani [7]): 12.2 µM; IC50 (Leishmania major): 11.8 µM; IC50 (Leishmania tropica): 8.9 µM
CCCCC1(CCCC)C[C@@H](CNCCCn2ccnc2)[C@](C)(OC)OO1 (racemic) | 5.2 µM | 140 µM | 35 | IC50 (Leishmania infantum [6]): 2.5 µM; IC50 (Leishmania donovani [7]): 10.1 µM; IC50 (Leishmania major): 3.2 µM; IC50 (Leishmania tropica): 3 µM
CCCCC1(CCCC)C[C@@H](COCc2cn(CCC[P+](c3ccccc3)(c3ccccc3)c3ccccc3)nn2)[C@](C)(OC)OO1 (racemic) | 40 µM | 200 µM | 5 | –
CCCCC1(CCCC)C[C@@H](COCc2cn(CCC[P+](c3ccccc3)(c3ccccc3)c3ccccc3)nn2)[C@@](C)(OC)OO1 (racemic) | 15.5 µM | 102 µM | 6.6 | –
C[C@@H]1[C@H](O)[C@@H](C)/C=C/C=C/C=C/C=C/C=C/C=C/C=C/[C@H](O[C@@H]2O[C@H](C)[C@@H](O)[C@H](N)[C@@H]2O)C[C@@H]2O[C@](O)(C[C@@H](O)C[C@@H](O)[C@H](O)CC[C@@H](O)C[C@@H](O)CC(=O)O[C@H]1C)C[C@H](O)[C@H]2C(=O)O [AMPHOTERICIN B] | 0.3 µM | – | 667 | IC50 (Leishmania donovani [4]): 0.03 to 2.8 µM
C[C@@H]1CC[C@H]2[C@@H](C)C(=O)O[C@@H]3O[C@@]4(C)CC[C@@H]1[C@]32OO4 [ARTEMISININ] | > 40 µM | – | – | IC50 (Leishmania donovani [10]): 100 to 160 µM
C[C@H]1[C@@H](O)O[C@@H]2O[C@@]3(C)CC[C@H]4[C@H](C)CC[C@@H]1[C@@]24OO3 [ARTENIMOL] | – | – | – | IC50 (Leishmania donovani [4]): 4.1 to 20.2 µM
OC(Cn1cncn1)(Cn1cncn1)c1ccc(F)cc1F [FLUCONAZOLE] | > 40 µM | – | – | –
CCCCCCCCCCCCCCCCOP(=O)([O-])OCC[N+](C)(C)C [MILTEFOSINE] | – | – | – | IC50 (Leishmania donovani [4]): 1.9 to 68.1 µM
NC[C@@H]1O[C@H](O[C@H]2[C@@H](O)[C@H](O[C@@H]3[C@@H](O)[C@H](N)C[C@H](N)[C@H]3O[C@H]3O[C@H](CO)[C@@H](O)[C@H](O)[C@H]3N)O[C@@H]2CO)[C@H](N)[C@@H](O)[C@@H]1O [PAROMOMYCIN] | – | – | – | IC50 (Leishmania donovani [11]): 19.7 to 28.1 µM
CCN(CC)CCCCCCNc1cc(OC)cc2c(C)ccnc12 [SITAMAQUINE] | – | – | – | IC50 (Leishmania donovani [4]): 36.1 to 179 µM
C[C@H]1[C@H](OC(=O)CCC(=O)O)O[C@@H]2O[C@@]3(C)CC[C@H]4[C@H](C)CC[C@@H]1[C@@]24OO3 [SODIUM ARESUNATE] | > 40 µM | – | – | IC50 (Leishmania donovani [12]): 12.1 µM
